Measured values: patent publication US7267815B2, “Methods and reagents for the enhancement of virus transduction in the bladder epithelium” (priority 2002, dated 2007)
Where a name gives a salt, the structure may show the parent alone. Read-outs that look alike come from different tables or passages of the source.

Key:
bladder epithelium [1] = assay: Effect of chemical agent pretreatment on adenovirus-mediated gene transfer and expression (Ad-βgal, X-gal staining); type: in vivo, mouse (BALB/c); conditions: for effect on transduction (in words): bladder pretreatment followed by Ad-LacZ
Description: 152 female BALB/c mice were used this study.
The route of administration of the chemical agent and virus was intravesical.
3. Based on the reagent being tested, bladder pretreatment was performed as follows:
Poloxomer 407 procedure: Washed 2 times with 100 μl each. Retained the 3rd wash for 5 min and gave one additional wash. Performed 3 times PBS wash prior to virus instillation.
Poloxomer 188 procedure: Washed 2 times with 100 μl each. Retained the 3rd wash for 5 minutes and gave one additional wash. Performed 3 times PBS wash prior to virus instillation.
Lipofectamine 2000 procedure: Added 5 μl of stock Lipofectamine (1 mg/ml) to 195 μl of PBS-10% glycerol. Mixed with an equal volume of Ad-βgal virus and incubated for 15 minutes. Administered 100 μl of the mixture intravesically and retained in the bladder for 30 minutes.
Benzyl Alcohol procedure: Washed 2 times with 100 μl each. Retained the 3rd wash for 15 minutes and then gave one additional wash. Performed 3 times PBS wash prior to virus instillation.
Performed 3 times PBS wash prior to virus instillation.
Polidocanol procedure: Washed 2 times with 100 μl each. Retained the 3rd wash for 5 min and then gave one additional wash. Performed 3 times PBS wash prior to virus instillation.
DC-Cho procedure: Washed 2 times with 100 μl each. Retained the 3rd wash for 5 min and then gave one additional wash. Performed 3 times PBS wash prior to virus instillation.
0.4% HPMC 2910 procedure: No pretreatment. An equal volume of the virus was mixed with 0.8% solution of HPMC2910 and the mixture was instilled into the bladder for 30 minutes.
100 mg/ml Poly-Lysine procedure: No pretreatment. An equal volume of the virus was mixed with 100 mg/ml solution of Poly-Lysine and the mixture was instilled into the bladder for 30 minutes.
0.4% polyvinyl alcohol (PVA) procedure: No pretreatment. An equal volume of the virus was mixed with 0.8% solution of PVA and the mixture was instilled into the bladder for 30 minutes.
n-dodecyl-β-D glucopyranoside procedure: Washed 2 times with 100 μl each. Retained the 3rd wash for 5 min and then gave one additional wash. Performed 3 times PBS wash prior to virus instillation.
0.4% PVP procedure: No pretreatment. An equal volume of the virus was mixed with 0.8% solution of PVP and the mixture was instilled into the bladder for 30 min.
0.1% cholesterol-cyclodextrin reagent procedure: No pretreatment. An equal volume of the virus was mixed with 0.2% solution of Cholesterol-Cyclodextrin and the mixture was instilled into the bladder for 30 minutes.
n-dodecyl-β-D-maltoside procedure: Washed 2 times with 100 μl each. Retained the 3rd wash for 5 min and then gave one additional wash. Performed 3 times PBS wash prior to virus instillation.
Sodium salt of dodecyl benzenesulfonic acid procedure: Washed 2 times with 100 μl each. Retained the 3rd wash for 5 min and then gave one additional wash. Performed 3 times PBS wash prior to virus instillation.
0.1% sodium dodecyl sulphate procedure: Wash 2 times with 100 μl each. Retained the 3rd wash for 5 min and then gave one additional wash. Performed 3 times PBS wash prior to virus instillation.
0.1% Tween 20 procedure: Washed 2 times with 100 μl each. Retained the 3rd wash for 5 min and then gave one additional wash. Performed 3 times PBS wash prior to virus instillation.
0.1% Triton® X-100 procedure: Washed 2 times with 100 μl each. Retained the 3rd wash for 5 min and then gave one additional wash. Perform 3 times PBS wash prior to virus instillation.
0.1% Forlan C-24 procedure: Washed 2 times with 100 μl each. Retained the 3rd wash for 5 min and then gave one additional wash. Performed 3 times PBS wash prior to virus instillation.
0.1% decyl-b-D-maltoside procedure: Washed 2 times with 100 μl each. Retained the 3rd wash for 5 min and then gave one additional wash. Performed 3 times PBS wash prior to virus instillation.
0.1% 6-cyclohexylhexyl-b-D-maltoside procedure: Washed 2 times with 100 μl each. […]

bladder epithelium [2] = assay: Transduction efficacy of exemplary pretreatment agents (summary Table 7); type: in vivo, mouse; conditions: pretreatment agent
adenovirus (Ad-LacZ) = assay: Study #5: adenovirus stability after incubation with 0.1% SDS or 0.1% DDM (plaque assay); type: physicochemical; conditions: 0.1% solution, one hour at 25° C. or 37° C.
Description: In this study, adenovirus (Ad-LacZ) preparations (1.0×10^12 vp/ml) were mixed with solutions of SDS or DDM to obtain a mixture of adenovirus and each of these surfactants. […] These samples were incubated at 25° C. or 37° C. for one hour before freezing. They were sent to assay services for plaque assay analysis.

adenovirus [3] = assay: Study #4: degradation of adenovirus by SDS (anion exchange chromatography); type: physicochemical; conditions: 37° C.
Description: A series of experiments were preformed on samples of adenovirus incubated at 37° C. for 15-30 minutes in various concentrations of SDS. The resulting material was examined by anion exchange chromatography.

[4] = test system: SD rat bladder epithelium; assay: Adenovirus dose titration with SDS or DDM pretreatment; type: in vivo, Sprague Dawley Rat; conditions: 0.1% pretreatment
From the text: All the animals had >90% in Ad-βgal gene expression in mice bladder. Adenovirus Dose Titration with Different Chemical Agents Pretreatment on SD Rat Bladder Epithelium • Species: Female Sprague Dawley Rat (Taconic Laboratory)—2/group • Study Design: To test the virus infectivity of rat bladder epithelium with different doses of Adenovirus following the pretreatment with SDS or DDM. This study also explored relationship between bladder volume and residual of SDS or DDM for adenovirus infectivity. • Dose/Route:
Rat bladders infected with 4×10^10 vp adenovirus achieved >90% Ad-βgal gene expression levels whereas rat bladders infected with 4×10^9 vp adenovirus had Ad-βgal gene expression levels range from 30% to 50%. […] Efficacy of Dodecyl-β-D-Maltoside as a Pretreatment Agent Prior to Adenovirus Infection of Mice Bladder Urothelium • Species: Female Balb/c Mouse (Taconic Laboratory)—2/group • Study Design: To test DDM from two different suppliers as pretreatment agents to enhance the adenovirus infection of mice bladder urothelium in a large group of animals. • Dose/Route: […]

bladder = assay: Histopathology of bladders after chemical agent pretreatment (pathologists report); type: in vivo, mouse (BALB/c)
From the text: Bladders fixed in whole organ fixative were sectioned and stained with hematoxylin-eosin for histologic examination.

adenovirus [5] = assay: Study #3: compatibility of adenovirus with selected enhancers (plaque assay); type: physicochemical
Description: For this study, each sample was incubated at 37° C. or 25° C. before the plaque assay started.

bladder epithelium [6] = test system: bladder epithelium
Description: A study was conducted to evaluate the effect of ethanol pretreatment on adenovirus-mediated gene transfer and expression in the bladder epithelium of rodents.
Ad-βgal virus was made as a frozen formulation using standard conditions known in the art for freezing and formulation of adenovirus. The vehicle for the virus arm was PBS plus 10% glycerol.
80 female BALB/c mice were used for this study. Female animals are chosen because of the ease of urethral cannulation and vesicle instillation. The mice were approximately 10 to 12 weeks on the day of the start of the experiment.
Animals were anesthetized with isoflurane and a 24 g catheter introduced through the urethra into the bladder.
Residual urine was emptied and the bladder was flushed 3 times with 100-150 μl each of PBS.
Ad-βgal viruses diluted in 0.1 ml of PBS-10% glycerol were administered intravesically into the bladder and retained in the bladder for 45 minutes. A knot was placed around the urethral orifice to prevent leakage of the virus and to prevent the catheter from dislodging.
Treatment was stopped by withdrawing the virus and flushing the bladders 3 times with 100-150 μl of PBS. […]
Animals were killed 48 hours after treatment. […] Transgene expression in the luminal epithelium of the longitudinally opened bladders was empirically determined.

Ad5-LacZ adenovirus [7] = assay: Study #2: compatibility of Ad5-LacZ with ethanol (plaque assay); type: physicochemical; conditions: higher concentrations of ethanol (i.e., ≧10%)
Description: For this study, each sample was incubated at 37° C. before the plaque assay started.

Ad5-LacZ adenovirus [8] = assay: Study #1: compatibility of Ad5-LacZ with ethanol and urine (plaque assay); type: physicochemical; conditions: 40% ethanol, 37° C. one hour
Description: In this study, each sample was incubated at 37° C. for one hour before the plaque assay started.

[9] = 0.02% pre-treatment for 5 minutes
[10] = 0.05% pre-treatment for 5 minutes
[11] = 0.2% pre-treatment for 5 minutes

Question: Which results are given for `OC[C@H]1O[C@H](O[C@H]2[C@H](O)[C@@H](O)[C@H](OCCCCCCC3CCCCC3)O[C@@H]2CO)[C@H](O)[C@@H](O)[C@@H]1O` [6-cyclohexylhexyl-β-D-maltoside]?
Answer: response class (level of transduction) (bladder epithelium [1]): strongest response; effect on transduction (in words) (bladder epithelium [1]): increased transduction significantly; Transduction Efficacy (bladder epithelium [2]): ++++ (“++++” means >75% transduction efficacy)

Question: How did the “response class (level of transduction)” value (bladder epithelium [1]) turn out when `CCCCCCCCCCCCOS(=O)(=O)O` [Sodium dodecyl sulfate, sodium dodecyl sulfate] was run?
Answer: strongest response

Question: What about the “effect on adenovirus (in words)” value (adenovirus (Ad-LacZ)) of the same molecule?
Answer: will inactivate the virus

Question: What about the “Transduction Efficacy” value (bladder epithelium [2]) of the same molecule?
Answer: ++++ (“++++” means >75% transduction efficacy)

Question: And the “degradation of the virus (AEX)” value (adenovirus [3]; SDS above or equal to 0.025%, 15-30 minutes)?
Answer: will rapidly degrade the virus

Question: What about the “particle quality or quantity by AEX method” value (adenovirus [3]; SDS at 0.0125%, 30 minutes of incubation) of the same molecule?
Answer: did not reduce the particle quality or quantity

Question: What about the “removal of GAG layer of bladder epithelium” value [4] of the same molecule?
Answer: effective to remove GAG layer of bladder epithelium

Question: Which “Transduction Efficacy” value (bladder epithelium [2]) does the source give for `CCCCCCCCCCCCO[C@H]1O[C@H](CO)[C@@H](O[C@H]2O[C@H](CO)[C@@H](O)[C@H](O)[C@H]2O)[C@H](O)[C@H]1O` [n-Dodecyl-α-D-Maltoside, n-dodecyl-α-D-maltoside] here?
Answer: ++++ (“++++” means >75% transduction efficacy)

Question: Which “response class (level of transduction)” value (bladder epithelium [1]) does the source give for “polyethyleneglycoldodecyl ether [polidocanol, reference compound]” here?
Answer: strongest response

Question: And the “transduction of the urothelium” value (bladder epithelium [1]; [9])?
Answer: 10-20%

Question: And the “transduction of the urothelium” value (bladder epithelium [1]; [10])?
Answer: 30-40%

Question: And the “transduction of the urothelium” value (bladder epithelium [1]; [11])?
Answer: 50-80%

Question: And the pathologists report (bladder; [9])?
Answer: intact mucosa

Question: And the pathologists report (bladder; [10])?
Answer: minimal submucosal edema

Question: And the pathologists report (bladder; [11])?
Answer: erosions and focal ulcer as well as mucosal compromise

Question: What about the “Transduction Efficacy” value (bladder epithelium [2]) of the same molecule?
Answer: ++ (“++” means 25-50% transduction efficacy)

Question: What about the “Average pfu/mL” value (adenovirus [5]; 25° C., 2 hours) of the same molecule?
Answer: 1.02E+10 pfu/mL

Question: And the Ratio vp/pfu (adenovirus [5]; 25° C., 2 hours)?
Answer: 21 vp/pfu

Question: And the “Average pfu/mL” value (adenovirus [5]; 37° C., 1 hour)?
Answer: 1.22E+10 pfu/mL

Question: What about the Ratio vp/pfu (adenovirus [5]; 37° C., 1 hour) of the same molecule?
Answer: 17 vp/pfu

Question: What about the “compatibility with the adenovirus (in words)” value (adenovirus [5]; under the experimental conditions of Table 5) of the same molecule?
Answer: compatible with the adenovirus

Question: Which “response class (level of transduction)” value (bladder epithelium [1]) does the source give for `CCCCCCCCCCO[C@@H]1O[C@H](CO)[C@@H](O[C@H]2O[C@H](CO)[C@@H](O)[C@H](O)[C@H]2O)[C@H](O)[C@H]1O` [n-decyl-β-D-maltoside] here?
Answer: weak responders (had significantly less stained area compared to the ethanol control group)

Question: What about the “effect on transduction (in words)” value (bladder epithelium [1]) of the same molecule?
Answer: only a slight effect on transduction

Question: What about the “Transduction Efficacy” value (bladder epithelium [2]) of the same molecule?
Answer: + (“+” means 10-25% transduction efficacy)

Question: For `CCCCCCCCCCOS(=O)(=O)[O-].[Na+]` [Sodium decyl sulfate], which “Transduction Efficacy” value (bladder epithelium [2]) is on record?
Answer: + (“+” means 10-25% transduction efficacy)

Question: What does the source list for Triton X-100?
Answer: response class (level of transduction) (bladder epithelium [1]): weak responders (had significantly less stained area compared to the ethanol control group); effect on transduction (in words) (bladder epithelium [1]): found to enhance transduction; Transduction Efficacy (bladder epithelium [2]): + (“+” means 10-25% transduction efficacy)

Question: `CCCCCCCCCCCCc1ccc(S(=O)(=O)[O-])cc1.[Na+]` [sodium salt of dodecyl-benzenesulfonic acid] was tested. Which “response class (level of transduction)” value (bladder epithelium [1]) did it give?
Answer: strongest response

Question: And the “transduction of the urothelium” value (bladder epithelium [1]; [11])?
Answer: 20-40%

Question: And the “effect on transduction (in words)” value (bladder epithelium [1])?
Answer: enhanced the transduction of Ad-LacZ in murine bladders

Question: And the “Transduction Efficacy” value (bladder epithelium [2])?
Answer: + (“+” means 10-25% transduction efficacy)

Question: Which “Transduction Efficacy” value (bladder epithelium [2]) does the source give for `CCCCCCCCCCCCCCO[C@@H]1O[C@H](CO)[C@@H](O[C@H]2O[C@H](CO)[C@@H](O)[C@H](O)[C@H]2O)[C@H](O)[C@H]1O` [n-Tetradecyl-β-D-Maltoside] here?
Answer: ++ (“++” means 25-50% transduction efficacy)

Question: With `CCCCCCCCCCCCCOC1OC(CO)C(OC2OC(CO)C(O)C(O)C2O)C(O)C1O` [n-Tridecyl-β-D-Maltoside] as the molecule, how does the “Transduction Efficacy” value (bladder epithelium [2]) read?
Answer: +++ (“+++” means 50-75% transduction efficacy)

Question: Which transduction (bladder epithelium [6]; 15%, 20%, 25%, and 30 wt. % ethanol pretreatment for 20 minutes, then Ad-βgal 45 min, 48 hours) does the source give for `CCO` [ethanol] here?
Answer: 10-20%

Question: And the transduction (bladder epithelium [6]; ethanol percentage as high as 30%, reference pre-treatment)?
Answer: 10-20%

Question: What about the “effect on adenovirus (in words)” value (Ad5-LacZ adenovirus [7]) of the same molecule?
Answer: partial to complete inactivation of adenovirus

Question: What about the “effect on the virus (in words)” value (Ad5-LacZ adenovirus [8]) of the same molecule?
Answer: inactivated most of the virus

Question: `CCCCCCCCCCCCO[C@@H]1O[C@H](CO)[C@@H](O)[C@H](O)[C@H]1O` [n-dodecyl-β-D-glucopyranoside] was tested. Which “effect on transduction (in words)” value (bladder epithelium [1]) did it give?
Answer: little or no enhancement of transduction

Question: For sucrose monolaurate, which “Transduction Efficacy” value (bladder epithelium [2]) is on record?
Answer: ++++ (“++++” means >75% transduction efficacy)
